Measurements: ChEMBL document CHEMBL5380844, “Discovery of a Novel, Potent, Orally Active, and Safe Inhibitor Targeting Human Mitochondrial RNA Polymerase” (J Med Chem, 2023)

Experiments:
[1] = Inhibition of ND1 transcript level in human A2780 cells at 500 nM measured after 12 hrs by RT-qPCR analysis relative to control; format: functional
A2780 = experiment: Antiproliferative activity against human A2780 cells incubated for 168 hrs by SRB method; format: functional, cell-based; conditions: A2780, 168 h
[2] = Apparent permeability across apical to basolateral side in human Caco-2 cells at 3 uM incubated for 2 hrs by LC-MS/MS analysis; format: ADME, cell-based

Compound | inhibition at 0.5 µM [1] [%] | IC50 (A2780) [nM] | Papp A→B at 2 h, 3 µM [2] [×10⁻⁶ cm/s]
C[C@@H](Oc1ccc2c(ccn2-c2ccc(F)cc2Cl)c1)C(=O)N1CCC[C@H](C(=O)O)C1 | 97 | > 10000 | –
C[C@@H](Oc1ccc2c(-c3ccc(Cl)cc3)cc(=O)oc2c1)C(=O)N1CC2CCC(C1)N2 | 24 | – | –
C[C@@H](Oc1ccc2c(-c3ccc(F)cc3Cl)cc(=O)oc2c1)C(=O)N1CCS(=O)(=O)CC1 | 35 | 291 | –
C[C@@H](Oc1ccc2c(-c3ccccc3Cl)cc(=O)oc2c1)C(=O)N1CC2CCC(C1)N2 | 15 | 52 | –
C[C@@H](Oc1ccc2c(-c3ccc(F)cc3Cl)cc(=O)oc2c1)C(=O)N1CCNCC1 | 25 | 123 | –
C[C@@H](Oc1ccc2c(-c3ccc(F)cc3Cl)cc(=O)oc2c1)C(=O)NCCN1CCOCC1 | 82 | 1220 | –
C[C@@H](Oc1ccc2c(-c3ccc(F)cc3Cl)cc(=O)oc2c1)C(=O)NCCC1CCOCC1 | 73 | 822 | –
C[C@@H](Oc1ccc2c(-c3cccc(Cl)c3)cc(=O)oc2c1)C(=O)N1CC2CCC(C1)N2 | 32 | 246 | –
C[C@@H](Oc1ccc2c(-c3ccc(F)cc3Cl)cc(=O)oc2c1)C(=O)NCCN1CCS(=O)(=O)CC1 | 86 | 2520 | –
C[C@@H](Oc1ccc2c(-c3cccc4ccccc34)cc(=O)oc2c1)C(=O)N1CC2CCC(C1)N2 | 67 | 562 | –
C[C@@H](Oc1ccc2c(-c3ccc(F)cc3Cl)coc2c1)C(=O)N1CCC[C@H](C(=O)O)C1 | 105 | > 10000 | –
CC(C)(Oc1ccc2c(-c3ccc(F)cc3Cl)cc(=O)oc2c1)C(=O)N1CCC[C@H](C(=O)O)C1 | 43 | 562 | –
C[C@@H](Oc1ccc2c(-c3ccc(F)cc3Cl)cc(=O)oc2c1)C(=O)Nc1ncco1 | 81 | 1220 | –
C[C@@H](CO)NC(=O)[C@@H](C)Oc1ccc2c(-c3ccc(F)cc3Cl)cc(=O)oc2c1 | 32 | 208 | –
O=C(O)[C@H]1CCCN(C(=O)C(F)(F)Oc2ccc3c(-c4ccc(F)cc4Cl)cc(=O)oc3c2)C1 | 37 | 322 | –
C[C@@H](Oc1ccc2c(C34C[C@H]5C[C@H](C3)C[C@@H](C4)C5)cc(=O)oc2c1)C(=O)N1CC2CCC(C1)N2 | 22 | 92 | –
C[C@@H](Oc1ccc2c(-c3ccc(F)cc3Cl)cccc2c1)C(=O)N1CCC[C@H](C(=O)O)C1 | 45 | 652 | –
C[C@@H](Oc1ccc2c(-c3ccc(F)cc3Cl)ncnc2c1)C(=O)N1CCC[C@H](C(=O)O)C1 | 93 | > 10000 | –
C[C@@H](Oc1ccc2c(-c3ccc(F)cc3Cl)cc(=O)oc2c1)C(=O)N1CC2CCC(C1)N2 | 8 | 43 | –
C[C@@H](Oc1ccc2c(-c3ccccc3)cc(=O)oc2c1)C(=O)N1CC2CCC(C1)N2 | 43 | 423 | –
CC(=O)N1CCN(C(=O)[C@@H](C)Oc2ccc3c(-c4ccc(F)cc4Cl)cc(=O)oc3c2)CC1 | 27 | 225 | –

Compound | inhibition at 0.5 µM [1] [%] | IC50 (A2780) [nM] | Papp A→B at 2 h, 3 µM [2] [×10⁻⁶ cm/s]
O=C(O)[C@H]1CCCN(C(=O)C2CC(Oc3ccc4c(-c5ccc(F)cc5Cl)cc(=O)oc4c3)C2)C1 (stereo not given in full) | 101 | > 10000 | –
C[C@@H](Oc1ccc2c(-c3ccc(F)cc3Cl)cc(=O)oc2c1)C(=O)NCCCO | 22 | 178 | –
C[C@@H](Oc1ccc2c(-c3ccncc3)cc(=O)oc2c1)C(=O)N1CC2CCC(C1)N2 | 78 | 832 | –
C[C@@H](Oc1ccc2c(-c3cccc(F)c3)cc(=O)oc2c1)C(=O)N1CC2CCC(C1)N2 | 75 | 866 | –
C[C@@H](Oc1ccc2c(-c3ccc(F)cc3Cl)cc(=O)oc2c1)C(=O)NCc1ccco1 | 41 | 405 | –
O=C(O)[C@H]1CCCN(C(=O)C2(Oc3ccc4c(-c5ccc(F)cc5Cl)cc(=O)oc4c3)CCC2)C1 | 42 | 692 | –
Cc1cc(Cl)ccc1-c1cc(=O)oc2cc(O[C@H](C)C(=O)N3CC4CCC(C3)N4)ccc12 | 12 | 58 | –
Cc1ccc(-c2cc(=O)oc3cc(O[C@H](C)C(=O)N4CC5CCC(C4)N5)ccc23)cc1 | 11 | 62 | –
C[C@@H](Oc1ccc2c(-c3ccc(F)cc3Cl)cc(=O)oc2c1)C(=O)NCCN(C)C | 31 | 200 | –
CC(=O)NCCNC(=O)[C@@H](C)Oc1ccc2c(-c3ccc(F)cc3Cl)cc(=O)oc2c1 | 26 | 181 | –
C[C@@H](Oc1ccc2c(-c3ccc(F)cc3Cl)cc(=O)oc2c1)C(=O)N1CC2CC(C1)N2 | 24 | 112 | –
C[C@@H](Oc1cccc(-c2ccc(F)cc2Cl)c1)C(=O)N1CCC[C@H](C(=O)O)C1 | 95 | > 10000 | –
C[C@@H](Oc1ccc2c(-c3ccc(F)cc3Cl)cc(=O)oc2c1)C(=O)NCCN | 26 | 282 | –
Cc1cc(F)ccc1-c1cc(=O)oc2cc(O[C@H](C)C(=O)N3CC4CCC(C3)N4)ccc12 | 12 | 42 | –
C[C@@H](Oc1ccc2c(C3CCCCC3)cc(=O)oc2c1)C(=O)N1CC2CCC(C1)N2 | 31 | 252 | –
Cc1ccccc1-c1cc(=O)oc2cc(O[C@H](C)C(=O)N3CC4CCC(C3)N4)ccc12 | 8 | 31 | –
Nc1cc(N2CCCCC2)nc(N)[n+]1[O-] [MINOXIDIL] | – | – | 6.79
Cc1ccc(-c2cc(=O)oc3cc(O[C@H](C)C(=O)N4CC5CCC(C4)N5)ccc23)c(Cl)c1 | 28 | 131 | –
C[C@@H](Oc1ccc2c(-c3ccc(F)cc3Cl)cc(=O)oc2c1)C(=O)NCCO | 23 | 135 | –
C[C@H](Oc1ccc2c(-c3ccc(F)cc3Cl)cc(=O)oc2c1)C(=O)N1CCC[C@H](C(=O)O)C1 | 34 | 287 | –
C[C@@H](Oc1ccc2c(-c3ccc(F)cc3Cl)csc2c1)C(=O)N1CCC[C@H](C(=O)O)C1 | 89 | > 10000 | –

Compound | inhibition at 0.5 µM [1] [%] | IC50 (A2780) [nM] | Papp A→B at 2 h, 3 µM [2] [×10⁻⁶ cm/s]
C[C@@H](Oc1ccc2c(-c3ccc(F)cc3Cl)cc(=O)oc2c1)C(=O)N1CCN(C)CC1 | 28 | 172 | –
Cc1cc(C)c(-c2cc(=O)oc3cc(O[C@H](C)C(=O)N4CC5CCC(C4)N5)ccc23)c(C)c1 | 16 | 74 | –
C[C@@H](Oc1ccc2c(-c3ccc(F)cc3Cl)cc(=O)oc2c1)C(=O)N1CCC[C@H]1CO | 42 | 432 | –
C[C@@H](Oc1ccc2c(-c3ccc(Cl)cc3Cl)cc(=O)oc2c1)C(=O)N1CC2CCC(C1)N2 | 24 | 56 | –
C[C@@H](Oc1ccc2c(-c3ccc(F)cc3Cl)cc(=O)oc2c1)C(=O)N1C2CCC1CNC2 | 15 | 65 | –
C[C@@H](Oc1ccc2c(-c3cc4ccccc4s3)cc(=O)oc2c1)C(=O)N1CC2CCC(C1)N2 | 85 | 1620 | –
CC(C)c1cc(=O)oc2cc(O[C@H](C)C(=O)N3CC4CCC(C3)N4)ccc12 | 93 | 2230 | –
C[C@@H](Oc1ccc2c(-c3ccc(F)cc3Cl)cc(=O)oc2c1)C(=O)N1CCSCC1 | 34 | 302 | –
O=C(O)[C@H]1CCCN(C(=O)COc2ccc3c(-c4ccc(F)cc4Cl)cc(=O)oc3c2)C1 | 39 | 373 | –
C[C@@H](Oc1ccc(C(=O)c2ccc(F)cc2Cl)cc1)C(=O)N1CCC[C@H](C(=O)O)C1 | 99 | > 10000 | –
C[C@@H](Oc1ccc2c(-c3ccsc3)cc(=O)oc2c1)C(=O)N1CC2CCC(C1)N2 | 24 | 129 | –
Cc1cccc(-c2cc(=O)oc3cc(O[C@H](C)C(=O)N4CC5CCC(C4)N5)ccc23)c1 | 25 | 125 | –
C[C@@H](Oc1ccc2c(-c3ccc(F)cc3Cl)cc(=O)oc2c1)C(=O)N1CC2(COC2)C1 | 68 | 758 | –
COCCNC(=O)[C@@H](C)Oc1ccc2c(-c3ccc(F)cc3Cl)cc(=O)oc2c1 | 25 | 152 | –
C[C@@H](Oc1ccc2c(-c3ccc(F)cc3Cl)cc(=O)oc2c1)C(=O)Nc1ccccn1 | 77 | 894 | –
C[C@@H](Oc1ccc2c(-c3ccccc3F)cc(=O)oc2c1)C(=O)N1CC2CCC(C1)N2 | 33 | 216 | –
C[C@@H](Oc1ccc2c(-c3ccc(F)cc3)cc(=O)oc2c1)C(=O)N1CC2CCC(C1)N2 | 44 | 453 | –
C[C@@H](Oc1ccc2c(-c3ccc(F)cc3Cl)cc(=O)oc2c1)C(=O)N1CCOCC1 | 25 | 93 | –
C[C@@H](Oc1ccc2c(-c3ccc(F)cc3Cl)cc(=O)[nH]c2c1)C(=O)N1CCC[C@H](C(=O)O)C1 | 88 | > 10000 | –
